# Like-named read-outs stand apart in the source and are kept apart here.
# Assays:
# human H3 receptor = biological target: T1, human H3 receptor (Homo sapiens, UniProt Q9Y5N1); assay: Human H3 radioligand binding ([3H]-N-alpha-methylhistamine, SPA)
# T1 construct: expressed in transfected cells
# Description: (§1) Methods: CHO cells stably expressing the human H3 receptor (GenBank: NM_007232) were harvested and cell pellets were frozen (−80° C.). Cell pellets were resuspended in 5 mM Tris-HCl, pH 7.5 with […] and a cocktail of protease inhibitors (Complete Protease Inhibitior Tablets, Roche Diagnostics). Cells were disrupted using a polytron cell homogenizer and the suspension was centrifuged at 1000×g for 10 minutes at 4° C. The pellet was discarded and the supernatant centrifuged at 40,000×g for 30 min at 4° C. This membrane pellet was washed in membrane buffer containing 50 mM Tris-HCl, pH 7.5 with 0.6 mM EDTA, 5 mM MgCl2 and protease inhibitors, recentrifuged as above and the final pellet resuspended in membrane buffer plus 250 mM sucrose and frozen at −80° C.
# (§2) Radioligand Binding. Membranes were resuspended in 50 mM Tris HCl (pH 7.4), 5 mM MgCl2, 0.1% BSA. The membrane suspensions (10 μg protein per well) were incubated in a 96 well microtiter plate with [^3H]-N-alpha-methylhistamine (approximately 1 nM final concentration), test compounds at various concentrations (0.01 nM-30 μM) and scintillation proximity beads (Perkin Elmer, FlashBlueGPCR Scintillating Beads) in a final volume of 80 μl for 4 hours at room temperature, protected from light. Non-specific binding was determined in the presence of 10 μM clobenpropit. Radioligand bound to receptor, and therefore in proximity to the scintillation beads, was measured using a MicroBeta scintillation counter.
# [1] = biological target: T2, rat histamine H3 receptor (Rattus norvegicus, UniProt Q9QYN8); assay: Rat H3 radioligand binding ([3H]-N-alpha-methylhistamine, SPA)
# T2 construct: encoding the entire 445-amino-acid rat histamine H3 receptor; expressed in transfected cells; membrane preparation
# T2 sequence (Q9QYN8 whole entry): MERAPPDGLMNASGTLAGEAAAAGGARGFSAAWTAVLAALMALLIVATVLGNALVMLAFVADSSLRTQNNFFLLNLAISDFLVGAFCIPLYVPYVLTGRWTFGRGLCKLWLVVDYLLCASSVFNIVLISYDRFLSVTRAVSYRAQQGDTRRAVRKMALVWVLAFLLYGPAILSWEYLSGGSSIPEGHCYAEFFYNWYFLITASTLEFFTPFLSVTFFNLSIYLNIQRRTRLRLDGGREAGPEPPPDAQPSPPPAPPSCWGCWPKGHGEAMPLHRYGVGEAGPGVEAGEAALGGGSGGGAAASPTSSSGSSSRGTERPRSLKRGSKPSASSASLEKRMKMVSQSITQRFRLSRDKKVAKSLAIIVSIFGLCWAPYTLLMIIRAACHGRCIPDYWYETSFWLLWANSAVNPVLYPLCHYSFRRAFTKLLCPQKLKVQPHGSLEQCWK
# Excerpt: as §1, with “Cell line development and membrane preparation. The rat” for “Methods: CHO cells stably expressing the human”, “cDNA was PCR amplified from reverse-transcribed RNA pooled from rat thalamus, hypothalamus, striatum and prefrontal cortex with a sequence corresponding to by #338-1672 of Genbank file #NM_053506, encoding the entire 445-amino-acid rat histamine H3 receptor. This was engineered into the pIRES-neo3 mammalian expression vector, which was stably transfected into the CHO-A3 cell line (Euroscreen, Belgium), followed by clonal selection by limiting dilution. Cells” for “(GenBank: NM_007232)”
# as §2
# [2] = Table A, human H3 binding, read-out: Human Ki
# [3] = Table A, rat H3 binding, read-out: Rat Ki
# [4] = Human H3 binding, Table B, Examples 136-362, read-out: hum H3 binding Ki
# [5] = Rat H3 binding, Table B, Examples 136-362, read-out: rat H3 binding Ki
# [6] = Table C, human H3 binding, read-out: Human H3 Ki
# [7] = Table C, rat H3 binding, read-out: Rat H3 Ki
# T1 sequence (Q9Y5N1 whole entry): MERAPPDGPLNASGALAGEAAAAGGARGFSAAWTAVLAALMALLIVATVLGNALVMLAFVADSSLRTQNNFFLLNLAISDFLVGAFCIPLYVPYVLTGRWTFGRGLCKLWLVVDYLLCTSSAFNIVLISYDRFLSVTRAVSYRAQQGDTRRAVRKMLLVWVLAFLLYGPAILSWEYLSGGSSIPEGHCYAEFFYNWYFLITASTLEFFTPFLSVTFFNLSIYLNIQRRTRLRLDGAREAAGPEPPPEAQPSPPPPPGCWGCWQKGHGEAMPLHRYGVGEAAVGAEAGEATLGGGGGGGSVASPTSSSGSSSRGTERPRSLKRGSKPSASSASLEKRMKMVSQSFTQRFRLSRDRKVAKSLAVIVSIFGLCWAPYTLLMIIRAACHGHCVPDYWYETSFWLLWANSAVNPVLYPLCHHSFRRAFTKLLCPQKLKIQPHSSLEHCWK
smiles,measurement,setting,value
O=S(=O)(c1ccc(-c2ccc3c(c2)CCC2(CCN(C4CCC4)CC2)O3)cc1)N1CCCC1 [Example 103],Ki,human H3 receptor; [2],< 200 nM
same,Ki,[1]; [3],< 200 nM
COc1ncc(-c2ccc3c(c2)CCC2(CCN(C4CCC4)CC2)O3)cn1 [Example 104],Ki,human H3 receptor; [2],< 200 nM
same,Ki,[1]; [3],< 200 nM
FC(F)(F)Oc1ccc(-c2ccc3c(c2)CCC2(CCN(C4CCC4)CC2)O3)cc1 [Example 105],Ki,human H3 receptor; [2],< 200 nM
same,Ki,[1]; [3],200 to 1000 nM
CNC(=O)c1ccc(-c2ccc3c(c2)CCC2(CCN(C4CCC4)CC2)O3)cc1 [Example 106],Ki,human H3 receptor; [2],< 200 nM
same,Ki,[1]; [3],< 200 nM
c1ncc(-c2ccc3c(c2)CCC2(CCN(C4CCC4)CC2)O3)cn1 [Example 107],Ki,human H3 receptor; [2],< 200 nM
same,Ki,[1]; [3],< 200 nM
CN(C)c1ncc(-c2ccc3c(c2)CCC2(CCN(C4CCC4)CC2)O3)cn1 [Example 108],Ki,human H3 receptor; [2],< 200 nM
same,Ki,[1]; [3],< 200 nM
O=C(NC1CC1)c1ccc(-c2ccc3c(c2)CCC2(CCN(C4CCC4)CC2)O3)cc1 [Example 109],Ki,human H3 receptor; [2],< 200 nM
same,Ki,[1]; [3],< 200 nM
N#Cc1ccc(-c2ccc3c(c2)CCC2(CCN(C4CCC4)CC2)O3)cc1 [Example 110],Ki,human H3 receptor; [2],< 200 nM
same,Ki,[1]; [3],< 200 nM
Cn1cc(-c2ccc3c(c2)CCC2(CCN(C4CCC4)CC2)O3)cn1 [Example 111],Ki,human H3 receptor; [2],< 200 nM
same,Ki,[1]; [3],< 200 nM
c1cc2c(cc1-c1ccc3nonc3c1)CCC1(CCN(C3CCC3)CC1)O2 [Example 112],Ki,human H3 receptor; [2],< 200 nM
same,Ki,[1]; [3],< 200 nM
NC(=O)c1ccc(-c2ccc3c(c2)CCC2(CCN(C4CCC4)CC2)O3)cc1 [Example 113],Ki,human H3 receptor; [2],< 200 nM
same,Ki,[1]; [3],< 200 nM
c1cc2c(cc1-c1cn[nH]c1)CCC1(CCN(C3CCC3)CC1)O2 [Example 114],Ki,human H3 receptor; [2],< 200 nM
same,Ki,[1]; [3],< 200 nM
CNC(=O)c1ccc(-c2ccc3c(c2)CCC2(CCN(C4CCC4)CC2)O3)cc1F [Example 115],Ki,human H3 receptor; [2],< 200 nM
same,Ki,[1]; [3],< 200 nM
NS(=O)(=O)c1ccc(-c2ccc3c(c2)CCC2(CCN(C4CCC4)CC2)O3)cc1 [Example 116],Ki,human H3 receptor; [2],< 200 nM
same,Ki,[1]; [3],< 200 nM
OCc1ccc(-c2ccc3c(c2)CCC2(CCN(C4CCC4)CC2)O3)cc1 [Example 117],Ki,human H3 receptor; [2],< 200 nM
same,Ki,[1]; [3],< 200 nM
Fc1ncccc1-c1ccc2c(c1)CCC1(CCN(C3CCC3)CC1)O2 [Example 118],Ki,human H3 receptor; [2],< 200 nM
same,Ki,[1]; [3],< 200 nM
c1ccc(Oc2ccc3c(c2)COC2(CCN(C4CCC4)CC2)O3)cc1 [Example 131],Ki,human H3 receptor; [2],200 to 1000 nM
same,Ki,[1]; [3],< 200 nM
N#Cc1ccc(Oc2ccc3c(c2)COC2(CCN(C4CCC4)CC2)O3)cc1 [Example 132],Ki,human H3 receptor; [2],< 200 nM
same,Ki,[1]; [3],< 200 nM
c1cnc(-c2ccc3c(c2)CCC2(CCN(C4CCC4)CC2)O3)cn1 [Example 145],Ki,human H3 receptor; [4],< 200 nM
same,Ki,[1]; [5],< 200 nM
CNC(=O)c1ccc(-c2ccc3c(c2)COC2(CCN(C4CCC4)CC2)O3)cc1C#N [Example 179],Ki,human H3 receptor; [4],< 200 nM
same,Ki,[1]; [5],< 200 nM
O=C(Nc1ccc2c(c1)COC1(CCN(C3CCC3)CC1)O2)Nc1ccccc1Cl [Example 185],Ki,human H3 receptor; [4],< 200 nM
same,Ki,[1]; [5],< 200 nM
O=C(c1ccc(-c2ccc3c(c2)CCC2(CCN(C4CCC4)CC2)O3)cn1)N1CC[C@H](O)C1 [Example 213],Ki,human H3 receptor; [4],< 200 nM
same,Ki,[1]; [5],< 200 nM
c1cc2c(cc1N1CCOCC1)COC1(CCN(C3CCC3)CC1)O2 [Example 214],Ki,human H3 receptor; [4],< 200 nM
same,Ki,[1]; [5],< 200 nM
COCCN(C)C(=O)c1ccc(-c2ccc3c(c2)CCC2(CCN(C4CCC4)CC2)O3)cc1F [Example 294],Ki,human H3 receptor; [4],< 200 nM
same,Ki,[1]; [5],< 200 nM
COCCN(C)C(=O)c1ccc(-c2ccc3c(c2)COC2(CCN(C4CCC4)CC2)O3)cc1F [Example 300],Ki,human H3 receptor; [4],< 200 nM
same,Ki,[1]; [5],< 200 nM
c1cnc(COc2ccc3c(c2)CCC2(CCN(C4CCC4)CC2)O3)nc1 [Example 317],Ki,human H3 receptor; [4],< 200 nM
same,Ki,[1]; [5],< 200 nM
O=C(O)c1c(F)cc(-c2ccc3c(c2)CCC2(CCN(C4CCC4)CC2)O3)cc1F [Example 318],Ki,human H3 receptor; [4],< 200 nM
same,Ki,[1]; [5],< 200 nM
Cc1cc(-c2ccc3c(c2)CCC2(CCN(C4CCC4)CC2)O3)ccc1C(=O)O [Example 327],Ki,human H3 receptor; [4],< 200 nM
same,Ki,[1]; [5],200 to 1000 nM
O=C(O)c1c(F)cc(-c2ccc3c(c2)COC2(CCN(C4CCC4)CC2)O3)cc1F [Example 334],Ki,human H3 receptor; [4],200 to 1000 nM
same,Ki,"[1]; Rat H3 binding, Table B, given as numeric bound instead of class symbol, read-out: rat H3 binding Ki",> 300 nM
NC(=O)c1c(F)cc(-c2ccc3c(c2)CCC2(CCN(C4CCC4)CC2)O3)cc1F [Example 340],Ki,human H3 receptor; [4],< 200 nM
same,Ki,[1]; [5],< 200 nM
NC(=O)c1ccc(N2CCN(c3ccc4c(c3)CCC3(CCN(C5CCC5)CC3)O4)CC2)nc1 [Example 379],Ki,human H3 receptor; [6],< 200 nM
same,Ki,[1]; [7],< 200 nM
COC1CCN(c2ccc3c(c2)CCC2(CCN(C4CCC4)CC2)O3)CC1 [Example 380],Ki,human H3 receptor; [6],< 200 nM
same,Ki,[1]; [7],< 200 nM
CS(=O)(=O)N1CCC(Oc2ccc3c(c2)CCC2(CCN(C4CCC4)CC2)O3)CC1 [Example 408],Ki,human H3 receptor; [6],< 200 nM
same,Ki,[1]; [7],< 200 nM
CN(C)C(=O)c1ccc(N2CCN(c3ccc4c(c3)CCC3(CCN(C5CCC5)CC3)O4)CC2)nc1 [Example 410],Ki,human H3 receptor; [6],< 200 nM
same,Ki,[1]; [7],< 200 nM
c1cc2c(cc1OC1CCNCC1)CCC1(CCN(C3CCC3)CC1)O2 [Example 425],Ki,human H3 receptor; [6],< 200 nM
same,Ki,[1]; [7],< 200 nM
c1cn2c(n1)CN(c1ccc3c(c1)CCC1(CCN(C4CCC4)CC1)O3)CC2 [Example 428],Ki,human H3 receptor; [6],< 200 nM
same,Ki,[1]; [7],< 200 nM
c1cc2c(cc1OCC1CCCO1)CCC1(CCN(C3CCC3)C1)O2 (stereo not shown) [Example 445],Ki,human H3 receptor; read-out: Human H3 Ki,200 to 1000 nM
same,Ki,[1]; read-out: Rat H3 kI,200 to 1000 nM
c1cc2c(cc1OCC1CCCO1)CCC1(CCN(C3CCC3)CC1)O2 (stereo not shown) [Example 449],Ki,human H3 receptor; read-out: Human H3 Ki,< 200 nM
same,Ki,[1]; read-out: Rat H3 kI,< 200 nM
c1cc2c(cc1OC1CCSCC1)CCC1(CCN(C3CCC3)CC1)O2 [Example 457],Ki,human H3 receptor; read-out: Human H3 Ki,< 200 nM
same,Ki,[1]; read-out: Rat H3 kI,< 200 nM
c1cc2c(cc1OC[C@H]1CCCO1)CCC1(CCN(C3CCC3)CC1)O2 [Example 464],Ki,human H3 receptor; read-out: Human H3 Ki,< 200 nM
same,Ki,[1]; read-out: Rat H3 kI,< 200 nM
c1cc2c(cc1OC1CCSC1)CCC1(CCN(C3CCC3)CC1)O2 (stereo not shown) [Example 484],Ki,human H3 receptor; read-out: Human H3 Ki,< 200 nM
same,Ki,[1]; read-out: Rat H3 kI,< 200 nM
O=S1(=O)CCC(COc2ccc3c(c2)CCC2(CCN(C4CCC4)CC2)O3)CC1 [Example 500],Ki,human H3 receptor; read-out: Human H3 Ki,< 200 nM
same,Ki,[1]; read-out: Rat H3 kI,< 200 nM
COc1ccc(CCc2ccc3c(c2)COC2(CCN(C4CCC4)CC2)O3)cn1 [Example 522],Ki,human H3 receptor; read-out: Human H3 Ki,< 200 nM
same,Ki,[1]; read-out: Rat H3 kI,< 200 nM
CCNC(=O)C1CC=C(c2ccc3c(c2)COC2(CCN(C4CCC4)CC2)O3)CC1 (stereo not shown) [Example 523],Ki,human H3 receptor; read-out: Human H3 Ki,< 200 nM
same,Ki,[1]; read-out: Rat H3 kI,< 200 nM
CCNC(=O)C1CCC(c2ccc3c(c2)COC2(CCN(C4CCC4)CC2)O3)CC1 (stereo not shown) [Example 524],Ki,human H3 receptor; read-out: Human H3 Ki,< 200 nM
same,Ki,[1]; read-out: Rat H3 kI,< 200 nM
COC1(c2ccc3c(c2)COC2(CCN(C4CCC4)CC2)O3)CC(C(=O)N2CCCC2)C1 (stereo not shown) [Example 540],Ki,human H3 receptor; read-out: Human H3 Ki,< 200 nM
same,Ki,[1]; read-out: Rat H3 kI,< 200 nM
Cc1cc(-c2ccc3c(c2)COC2(CCN(C4CCC4)CC2)O3)cnc1OCc1ccccc1 [Example 549],Ki,human H3 receptor; read-out: Human H3 Ki,200 to 1000 nM
same,Ki,[1]; read-out: Rat H3 kI,> 1000 nM

# Source: US8513232B2, “Substituted spirocyclic piperidine derivatives as histamine-3 (H3) receptor ligands” (Cephalon, Inc., priority 2008, dated 2013)
